According to ChEMBL document CHEMBL1151152, “7-deoxy-6-epi-castanospermine, a trihydroxyindolizidine alkaloid glycosidase inhibitor from Castanospermum australe” (J Nat Prod, 1990):
The source made the active and inactive calls. No cut-off for these calls is given here.

What was measured:
Bos taurus [1] = species: Bos taurus; assay: Inhibition of bovine epididymis beta-N-acetylglucosaminidase B up to 1 mM
[2] = target: T1, Beta-glucuronidase (Bos taurus) (UniProt A3KMY8); assay: Inhibition of bovine liver beta-glucuronidase up to 1 mM
T1 sequence (whole entry): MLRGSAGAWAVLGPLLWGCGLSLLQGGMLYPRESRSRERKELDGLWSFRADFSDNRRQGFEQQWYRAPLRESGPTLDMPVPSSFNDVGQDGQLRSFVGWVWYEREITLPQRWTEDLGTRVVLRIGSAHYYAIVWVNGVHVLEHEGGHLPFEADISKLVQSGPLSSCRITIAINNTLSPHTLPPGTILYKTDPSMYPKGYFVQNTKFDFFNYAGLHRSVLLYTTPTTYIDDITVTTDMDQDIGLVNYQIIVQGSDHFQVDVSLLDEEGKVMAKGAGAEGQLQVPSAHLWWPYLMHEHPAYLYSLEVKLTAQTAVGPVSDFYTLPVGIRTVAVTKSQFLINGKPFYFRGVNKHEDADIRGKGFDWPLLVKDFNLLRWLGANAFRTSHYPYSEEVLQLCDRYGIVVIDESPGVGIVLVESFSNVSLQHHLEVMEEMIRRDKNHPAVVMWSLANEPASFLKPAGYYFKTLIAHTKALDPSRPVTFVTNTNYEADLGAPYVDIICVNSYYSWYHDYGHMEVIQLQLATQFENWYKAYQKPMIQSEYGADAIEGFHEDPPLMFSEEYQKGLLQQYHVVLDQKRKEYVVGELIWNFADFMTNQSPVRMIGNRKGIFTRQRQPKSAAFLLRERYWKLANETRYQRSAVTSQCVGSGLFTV

Aspergillus niger [3] = assay: Inhibition of Aspergillus niger beta-xylosidase up to 1 mM
Bos taurus [4] = species: Bos taurus; assay: Inhibition of bovine kidney alpha-L-fucosidase up to 1 mM
[5] = system: Vigna radiata var. radiata; assay: Inhibition of mung bean seedlings glucosidase 2 up to 1 mM
Bos taurus [6] = species: Bos taurus; assay: Inhibition of bovine liver beta-galactosidase
[7] = target: Sucrase-isomaltase, intestinal (Rattus norvegicus) (UniProt P23739); assay: Inhibition of Sprague-Dawley rat small intestine sucrase
Chain of Sucrase-isomaltase, intestinal (Rattus norvegicus) (P23739 1-1013 limits assumed): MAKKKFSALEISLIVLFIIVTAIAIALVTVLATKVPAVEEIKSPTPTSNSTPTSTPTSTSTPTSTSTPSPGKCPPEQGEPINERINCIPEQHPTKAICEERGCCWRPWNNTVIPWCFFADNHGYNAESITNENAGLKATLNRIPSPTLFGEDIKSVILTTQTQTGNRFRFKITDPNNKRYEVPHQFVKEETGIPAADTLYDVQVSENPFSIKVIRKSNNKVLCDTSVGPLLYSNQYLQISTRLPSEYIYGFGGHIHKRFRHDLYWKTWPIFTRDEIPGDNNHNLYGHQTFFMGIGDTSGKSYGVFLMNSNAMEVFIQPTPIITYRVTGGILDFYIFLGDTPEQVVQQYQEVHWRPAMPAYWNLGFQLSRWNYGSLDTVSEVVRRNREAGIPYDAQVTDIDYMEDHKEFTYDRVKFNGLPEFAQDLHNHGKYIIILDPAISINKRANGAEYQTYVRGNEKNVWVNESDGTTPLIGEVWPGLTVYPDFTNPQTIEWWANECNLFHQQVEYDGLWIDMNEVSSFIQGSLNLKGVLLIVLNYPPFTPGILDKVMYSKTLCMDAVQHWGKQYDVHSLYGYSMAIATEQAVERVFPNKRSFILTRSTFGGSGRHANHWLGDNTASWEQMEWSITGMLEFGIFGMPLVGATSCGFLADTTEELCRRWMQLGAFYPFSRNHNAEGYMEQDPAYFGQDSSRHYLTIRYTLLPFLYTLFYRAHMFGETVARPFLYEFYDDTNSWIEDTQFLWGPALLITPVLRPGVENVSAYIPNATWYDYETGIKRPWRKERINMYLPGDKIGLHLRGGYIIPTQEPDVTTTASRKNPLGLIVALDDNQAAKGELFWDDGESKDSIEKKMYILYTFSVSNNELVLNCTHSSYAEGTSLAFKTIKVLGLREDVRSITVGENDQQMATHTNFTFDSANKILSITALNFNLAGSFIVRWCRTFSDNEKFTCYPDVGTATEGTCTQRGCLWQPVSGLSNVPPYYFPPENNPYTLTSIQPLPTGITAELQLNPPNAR
Chain of Sucrase-isomaltase, intestinal (Rattus norvegicus) (P23739 1014-1841 limits assumed): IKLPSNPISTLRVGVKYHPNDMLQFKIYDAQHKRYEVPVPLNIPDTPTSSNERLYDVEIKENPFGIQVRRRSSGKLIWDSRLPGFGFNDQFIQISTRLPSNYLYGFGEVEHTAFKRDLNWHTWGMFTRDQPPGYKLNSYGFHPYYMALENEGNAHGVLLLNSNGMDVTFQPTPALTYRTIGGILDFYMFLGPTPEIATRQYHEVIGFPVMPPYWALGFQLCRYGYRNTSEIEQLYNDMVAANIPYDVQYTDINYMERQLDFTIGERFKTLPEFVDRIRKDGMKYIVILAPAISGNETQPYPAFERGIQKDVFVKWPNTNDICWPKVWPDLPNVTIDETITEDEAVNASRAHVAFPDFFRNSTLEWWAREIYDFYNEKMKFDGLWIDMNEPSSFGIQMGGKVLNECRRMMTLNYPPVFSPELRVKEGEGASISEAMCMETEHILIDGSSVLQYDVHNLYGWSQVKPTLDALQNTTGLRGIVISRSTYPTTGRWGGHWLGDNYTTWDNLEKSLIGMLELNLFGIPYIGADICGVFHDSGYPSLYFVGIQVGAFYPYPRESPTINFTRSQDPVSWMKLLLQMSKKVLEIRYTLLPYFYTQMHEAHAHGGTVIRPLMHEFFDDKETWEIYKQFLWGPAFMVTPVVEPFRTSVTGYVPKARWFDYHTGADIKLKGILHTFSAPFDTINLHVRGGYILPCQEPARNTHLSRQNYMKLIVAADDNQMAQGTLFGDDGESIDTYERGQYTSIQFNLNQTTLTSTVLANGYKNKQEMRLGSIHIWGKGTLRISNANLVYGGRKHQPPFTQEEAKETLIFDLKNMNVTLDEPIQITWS

Saccharomyces cerevisiae [8] = assay: Inhibition of yeast alpha-glucosidase
[9] = system: Vigna radiata var. radiata; assay: Inhibition of mung bean seedlings glucosidase 1
Saccharomyces cerevisiae [10] = assay: Inhibition of yeast alpha-glucosidase at 1 mM
[11] = system: Vigna radiata var. radiata; assay: Inhibition of mung bean seedlings glucosidase 1 at 1 mM
[12] = target: Sucrase-isomaltase, intestinal (Rattus norvegicus) (UniProt P23739); assay: Inhibition of Sprague-Dawley rat small intestine sucrase at 1 mM
Bos taurus [13] = species: Bos taurus; assay: Inhibition of bovine liver beta-galactosidase at 1 mM
Aspergillus niger [14] = assay: Inhibition of Aspergillus niger amyloglucosidase by competitive inhibition-based kinetic assay
Aspergillus niger [15] = assay: Inhibition of Aspergillus niger amyloglucosidase at 230 uM by competitive inhibition-based kinetic assay
Prunus dulcis = assay: Inhibition of almond beta-glucosidase up to 1 mM
Aspergillus niger [16] = assay: Inhibition of Aspergillus niger alpha-galactosidase up to 1 mM
Canavalia ensiformis = assay: Inhibition of jack bean alpha-mannosidase up to 1 mM
Aspergillus niger [17] = assay: Inhibition of Aspergillus niger alpha-mannosidase up to 1 mM
Aspergillus niger [18] = assay: Inhibition of Aspergillus niger amyloglucosidase at 20 uM by competitive inhibition-based kinetic assay
Aspergillus niger [19] = assay: Inhibition of Aspergillus niger amyloglucosidase at 7 uM by competitive inhibition-based kinetic assay

SMILES: O[C@H]1C[C@H](O)[C@H]2[C@@H](O)CCN2C1
- Activity (Bos taurus [1]): inactive
- Activity [2]: inactive
- Activity (Aspergillus niger [3]): inactive
- Activity (Bos taurus [4]): inactive
- Activity [5]: inactive
- Activity (Bos taurus [6]): Active
- Activity [7]: Active
- Activity (Saccharomyces cerevisiae [8]): Active
- Activity [9]: Active
- inhibition (Saccharomyces cerevisiae [10]): 50%
- inhibition [11]: 35%
- inhibition [12]: 30%
- inhibition (Bos taurus [13]): 20%
- Activity (Aspergillus niger [14]): Active
- inhibition (Aspergillus niger [15]): 50%
- Activity (Prunus dulcis): inactive
- Activity (Aspergillus niger [16]): inactive
- Activity (Canavalia ensiformis): inactive
- Activity (Aspergillus niger [17]): inactive

SMILES: O[C@H]1[C@H](O)[C@H](O)CN2CC[C@H](O)[C@H]12
- Activity (Aspergillus niger [14]): Active
- inhibition (Aspergillus niger [18]): 50%

SMILES: O[C@H]1[C@H](O)[C@@H](O)CN2CC[C@H](O)[C@H]12
- Activity (Aspergillus niger [14]): Active
- inhibition (Aspergillus niger [19]): 50%
